The experiment has as its system Lol p V reactive T Cells. The experiment is described as follows: T cell proliferation (tritiated thymidine) of Lol p V-primed T cell lines from grass-allergic patients. In kind it is cell-based, human. The text has this:
As discussed in Example 2, human T cell stimulating activity can be tested by culturing T cells obtained from an individual sensitive to Lol p V allergen, (i.e., an individual who has an IgE mediated immune response to Lol p V allergen) with a peptide derived from the allergen and determining whether proliferation of T cells occurs in response to the peptide as measured, e.g., by cellular uptake of tritiated thymidine. Stimulation indices for responses by T cells to peptides can be calculated as the maximum CPM in response to a peptide divided by the control CPM. A stimulation index (S.I.) equal to or greater than two times the background level is considered “positive”. Positive results are used to calculate the mean stimulation index for each peptide for the group of patients tested. In FIGS. 4 and 5 the mean T cell stimulation index is indicated above the bar. Preferred peptides of this invention comprise at least one T cell epitope and have a mean T cell stimulation index of greater than or equal to 2.0. […]
In addition, preferred peptides have a positivity index (P.I.) of at least about 60, more preferably about 100, more preferably at least about 200 and most preferably at least about 300. The positivity index for a peptide is determined by multiplying the mean T cell stimulation index by the percent of individuals, in a population of individuals sensitive to ryegrass pollen (e.g., preferably a population of at least 15 individuals, more preferably a population of at least 30 individuals or more), who have a T cell stimulation index to such peptide of at least 2.0. […]
In FIG. 5, the bar represents the cumulative rank of the peptide response in the group of patients tested as described in Example 2. To determine the cumulative rank, the 5 peptides with the highest S.I. in each individual were determined and assigned a numerical rank in descending order, with 5 representing the strongest response. […]
This amount of priming antigen was determined to be optimal for the activation of T cells from most grass-allergic patients. […]

In the case of “LPIX-5: synthetic overlapping peptide derived from Lol p V, sequence in FIG. 2 (GFKAAVAAAANAPPADKFKI; Lolium perenne)”, the “percent of positive responses (patients with S.I. of at least 2)” value (group of 19 patients tested, FIG. 4) was 26.3%. Consider “LPIX-20: synthetic overlapping peptide derived from Lol p V, sequence in FIG. 2 (AYETYKFIPSLEAAVKQAYA; Lolium perenne)”, for which the “ranked sum (cumulative rank of the peptide response)” value (19 patients, 5 peptides with highest S.I. per individual ranked, ranks summed, FIG. 5) is reported as “highest ranked sum”.

Turning to “rFel d I (Chain I): recombinant Fel d I chain I, control antigen in T cell assay [reference compound]”, the “T cell proliferative response of one patient” value (one allergic patient, results not shown) is given as “not”.

For the origin of these results see patent US7112333B1, “T cell epitopes of ryegrass pollen allergen” (Heska Corporation, priority 1994, dated 2006).
